Results reported in patent US20240285808A1, “MOLECULAR PROBES FOR IN VIVO DETECTION OF ALDEHYDES” (The General Hospital Corporation, priority 2021, published 2024).
Values joined by “and” are separate entries in the source; they are usually repeats but may differ in a detail not shown here. Identical values can stand only once.

Key:
[1] = tested on: lungs of bleomycin-injured mice; assay: MR imaging of lung in bleomycin lung fibrosis model; assay type: in vivo, mouse; settings: for ΔLMR in lungs, pair-wise comparison: 60 min post injection, individual mice ID 1-6
Protocol: C57Bl/6 adult male mice at 8 weeks of age (Jackson Laboratories, Barr Harbor, ME) received a single intratracheal dose of bleomycin, 1 units/kg body weight (50 μL total volume) (Fresenius Kabi, Lake Zurich, Il) as previously described in Desogere, P., et al. Optimization of a Collagen-Targeted PET Probe for Molecular Imaging of Pulmonary Fibrosis. J Nuc Med 58, 1991-1996 (2017).
Pair-Wise Comparison Between Gd-CHyd and Gd-9 in Lung Fibrosis Model:
A series of baseline images were first acquired. […] Then anesthesia was removed, and the mouse was allowed to awake and return to cage. After 4 hours, the same mouse was anesthetized again.
Pair-wise comparison between Mn-15 and Mn-17 in lung fibrosis model: The bleomycin-injured mice were first randomly imaged with Mn-15 or Mn-17 and then 24 hours later same imaging protocol was performed in the same mice with the other probe.
(§1) Animals were anesthetized with isoflurane (1-2%) and placed in a specially designed cradle with body temperature maintained at 37° C. The inhaled isoflurane level was adjusted to maintain a respiration rate of 60±5 breaths per minute. The tail vein was cannulated for intravenous (i.v.) delivery of the contrast agent while the animal was positioned in the scanner. Imaging was performed at 4.7 T using a small bore animal scanner with a custom-built volume coil. Mice were imaged with a dose of 100 μmol/kg from 30 mM stock solution of Gd or Mn complex.
For lung imaging, images were acquired with following sequences and parameters: 3D Ultrashort TE (3D-UTE, TR/TE/FA=4 ms/11.75 μs/16°, 0.6 mm isotropic spatial resolution, field of view (FOV) 75 mm×75 mm, one average, acquisition time=6.1 min) images were acquired prior to and dynamically post injection of contrast agent; Rapid Acquisition with Relaxation Enhancement (RARE, TR/TE/FA=1.5 s/8 ms/180°, 0.3 mm isotropic spatial resolution, field of view (FOV) 60 mm×50 mm, four average, acquisition time=6.1 min) and T1-weighted 3D Fast Low Angle Shot (FLASH, TR/TE/FA=10 ms/2.5 ms/30°, 0.6 mm isotropic spatial resolution, field of view (FOV) 60 mm×50 mm, one average, acquisition time=6.1 min) images were also acquired.
A total of 6 lung ROIs were defined on axial UTE images to obtain signal intensity (SI); ROIs in the dorsal muscle in each slice were also defined as reference; ROIs in the field of view without any tissue (air) were used to measure the variation in background signal. Then the lung-to muscle ratio (LMR) or contrast to noise ratio (CNR) was averaged from the 6 slices to calculate changes in LMR (ΔLMR) or CNR (ΔCNR) at each time point.
Gd-9 is a Gd-DOTA derivative with two hydrazine arms synthesized by amide coupling of two tBu-piperazin-1-ylcarbamate groups to 1,4,7,10-tetraazacyclododecane-1,4-bis(tBu-acetate)-4,10-bis(glutaric acid 1-tBu ester), followed by acid deprotection and gadolinium complexation. C57Bl/6 adult male mice at 8 weeks of age received a single intratracheal dose of bleomycin, 1 U/kg body weight (50 μL total volume) as previously described. Pair-wise imaging study of GdCHyd and Gd-9 was carried out in mice at day 14 post bleomycin injury on a 4.7 T MRI with a dose of 100 μmol/kg of each probe. For the treatment study, mice were imaged first at day 10 post bleomycin injury, then treated daily with oral gavage of either epigallocatechin gallate (EGCG, 100 mg/kg) or PBS (vehicle) for 11 days. At day 21 post bleomycin injury, the animals were imaged again. MRI consisted of T1-weighted UTE (TR/TE/flip angle=4 ms/0.011 ms/15°) images acquired prior to and up to 30 minutes following intravenous administration of Gd-9 ([…]). Following the second imaging session, animals were euthanized (60 minutes post injection), and lung tissues were removed for further analysis.

[2] = tested on: liver of CCl4 injured mice; assay type: in vivo, mouse; settings: for ΔCNR (liver to muscle): 100 μmol/kg i.v., group mean; for ΔCNR of liver, pair-wise comparison: individual mice ID 1-6
Protocol: CCl4 Liver Fibrosis Model:
Male C57BL/6 mice (Charles River Laboratories, Wilmington, MA) were treated with carbon tetrachloride for 12 weeks (0.1 ml of 20% CCl4 in olive oil the first week, 30% the second week, and 40% from weeks 3-12) by oral gavage, 2-3 times per week. Control mice were fed vehicle (olive oil) only.
A total of 53 C57BL/6 mice were included to study CCl4 induced hepatic fibrosis: • A. CCl4 for 12 weeks (n=20). Each mouse was imaged with probe 1 and then imaged again 24 hours later with probe 2. Probe 1 and Probe 2 were randomly chosen from GdDOTA, GdCHyd, Mn-12, Gd-9 and Gd-10. • B. Vehicle treated control (n=20). Each mouse was imaged with probe 1 and then imaged again 24 hours later with probe 2. Probe 1 and Probe 2 were randomly chosen from GdDOTA, Mn-12, GdCHyd, Gd-9, Gd-10. • C. CCl4 for 12 weeks (n=3, another 3 pair-wise comparison have been done in group A). Each mouse was imaged with probe 1 and then imaged again 24 hours later with probe 2. […] Each mouse was imaged with probe 1 and then imaged again 24 hours later with probe 2. Probe 1 and Probe 2 were randomly choosing from Gd-9 and Gd-10. • E. CCl4 for 12 weeks (n=3). Each mouse was imaged with Gd-9. After 24 hours, the same mouse was first injected with 1000 μmol/kg of Yb-9 and then injected with 100 μmol/kg of Gd-9 15 min after the Yb-9 injection.
as §1
For mice liver imaging, a series of baseline images (3D T1 weighted fast low angle shot magnetic resonance imaging (FLASH)) were first acquired (repetition time/echo time=15/2 ms; flip angle, 30°; field of view, 48×30 mm^2; matrix size, […]; slice thickness, 0.25 mm; acquisition time, 3 minutes 20 seconds), then a bolus of Gd or Mn complex was administered i.v. and imaging performed for a period of 45 min p.i. with the repetition acquisition of 3D T1 weighted FLASH sequences. Following the imaging session, animals were sacrificed (75 min p.i.) and liver tissue was subjected to histopathologic analysis.
For liver imaging analysis, a region of interest (ROI) was manually traced encompassing the liver parenchyma while avoiding major blood vessels. A second ROI was placed on the dorsal muscle visible in the same image slice to quantify the signal intensity in the muscle for comparison. Seven ROIs were placed in the field of view without any tissue (air) to measure the variation in background signal. More than 20 axial slices per mouse across the entire liver were analyzed in this fashion. […] Contrast to noise ratio (CNR) was calculated by measuring the difference in signal intensity (SI) between liver and muscle and normalizing to the standard deviation of the signal in the air, eq 21. ΔCNR was calculated by subtracting CNR measured prior to probe injection (CNRPre) from CNR measured after injection (CNRPost), eq 22. […]

[3] = bleomycin injured mice (fibrotic lung)
[4] = CCl4 injured mice, 45 min post injection

SMILES: NOC(CCC(=O)NCCCN1CCN(CC(=O)[O-])Cc2cccc(n2)CN(CC(=O)[O-])CC1)C(=O)O.[Mn+2] (centres unmarked) [Mn-16]
- Change in lung to muscle ratio (ΔLMR) ([1]; Bleomycin injured mice): 0.18
- Change in lung to muscle ratio (ΔLMR) ([1]; Naïve mice): 0.00
- Washout T1/2 in lungs ([1]; Naïve mice (normal lung)): 17.9 ± 3.2 min
- Washout T1/2 in lungs [1, 3]: >240 min

SMILES: NNCC(=O)NCCCN1CCN(CC(=O)[O-])Cc2cccc(n2)CN(CC(=O)[O-])CC1.[Mn+2] [Mn-17]
- ΔLMR in lungs, pair-wise comparison [1]: 0.09 and 0.18 (2×) and 0.27 and 0.15 (2×)
- Change in lung to muscle ratio (ΔLMR) ([1]; Bleomycin injured mice): 0.15
- Change in lung to muscle ratio (ΔLMR) ([1]; Naïve mice): 0.00
- Washout T1/2 in lungs ([1]; Naïve mice (normal lung)): 15.1 ± 1.9 min
- Washout T1/2 in lungs [1, 3]: 41.5 ± 6.3 min

SMILES: NNC(CCC(=O)NCCCN1CCN(CC(=O)[O-])Cc2cccc(n2)CN(CC(=O)[O-])CC1)C(=O)O.[Mn+2] (centres unmarked) [Mn-15]
- fold higher DCNR in CCl4 treated vs vehicle treated mice ([2]; 20 minutes post injection): 3 fold
- ΔCNR (liver to muscle) [2, 4]: 1.2 ± 0.2
- ΔLMR in lungs, pair-wise comparison [1]: 0.06 and 0.11 and 0.18 (2×) and 0.08 and 0.15
- Change in lung to muscle ratio (ΔLMR) ([1]; Bleomycin injured mice): 0.13
- Change in lung to muscle ratio (ΔLMR) ([1]; Naïve mice): 0.00
- Washout T1/2 in lungs ([1]; Naïve mice (normal lung)): 13.7 ± 1.4 min
- Washout T1/2 in lungs [1, 3]: 33.5 ± 5.1 min and 33.6 ± 5.1 min

SMILES: NN1CCN(C(=O)CCC(C(=O)[O-])N2CCN(CC(=O)[O-])CCN(C(CCC(=O)N3CCN(N)CC3)C(=O)[O-])CCN(CC(=O)[O-])CC2)CC1.[Gd+3] (stereo not drawn) [Gd-10, trans-1,7-Gd-(CHyd)2]
- ΔCNR (liver to muscle) [2, 4]: 1.3±0.4 and 1.5 ± 0.9
- ΔCNR of liver, pair-wise comparison [2, 4]: 1.3 and 2.3 and 1.2 and 0.9 and 1.4 and 1.0

SMILES: CN(C)C(CCC(=O)NCCCN1CCN(CC(=O)[O-])Cc2cccc(n2)CN(CC(=O)[O-])CC1)C(=O)O.[Mn+2] (centres unmarked) [Mn-18]
- Change in lung to muscle ratio (ΔLMR) ([1]; Bleomycin injured mice): 0.04
- Change in lung to muscle ratio (ΔLMR) ([1]; Naïve mice): 0.01
- Washout T1/2 in lungs ([1]; Naïve mice (normal lung)): 15.7 ± 1.8 min
- Washout T1/2 in lungs [1, 3]: 18.9 ± 2.0 min

SMILES: NN1CCN(C(=O)CCC(C(=O)[O-])N2CCN(CC(=O)[O-])CCN(CC(=O)[O-])CCN(C(CCC(=O)N3CCN(N)CC3)C(=O)[O-])CC2)CC1.[Gd+3] (stereo not drawn) [Gd-9, cis-1,4-Gd-(CHyd)2]
- fold higher ΔCNR compared to Gd-CHyd (monobinder) ([2]; CCl4 injured mice, 45 min p.i.): 10 fold
- ΔCNR (liver to muscle) [2, 4]: 2.2±0.8 and 2.2 ± 0.9
- ΔCNR of liver, With blocking ([2]; CCl4 injured mice, 45 min post injection, blocking dose of Yb-9 (1000 μmol/kg) 15 min before, individual mice ID 1-3): 0.1 (2×) and 0.3
- ΔCNR of liver, Without blocking ([2]; CCl4 injured mice, 45 min post injection, individual mice ID 1-3): 3.6 and 2.7 and 3.0
- ΔCNR of liver, pair-wise comparison [2, 4]: 1.9 (2×) and 3.2 and 1.3 and 2.1 and 1.5
- fold higher signal in fibrotic lung than GdCHyd ([1]; bleomycin day 14, pairwise study, same time point post injection): 3 fold
- ΔCNR of lung, pair-wise comparison ([1]; bleomycin injured mice, 25 min post injection, individual mice ID 1-4): 3.7 and 4.3 and 3.0 and 4.0
